Reference: patent US11299478B2, “2-cyanopyrimidin-4-yl carbamate or urea derivative or salt thereof, and pharmaceutical composition including same” (HANLIM PHARMACEUTICAL CO., LTD., priority 2018, dated 2022)

Experiments:
Type in all cases: biochemical
cathepsin L = cathepsin L (Homo sapiens, UniProt P07711); experiment: Inhibitory activity assay against cathepsin L (enzyme assay); conditions: Z-Phe-Arg-AMC 2 μM, enzyme 3 nM, pH 5.5, 30 minutes
Procedure, shortened: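 IC50s came from 4-parameter logistic fits of ten concentrations (10.0 μM down to 0.000508 μM). Reaction: 30 min, 3 nM enzyme, 2 μM Z-Phe-Arg-AMC, pH 5.5 MES buffer containing DTT, EDTA, Polysorbate 20 and 10% DMSO; fluorescence read 340/460 nm.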

cathepsin K = target: T1, cathepsin K (Homo sapiens, UniProt P43235); experiment: Inhibitory activity assay against cathepsin K (enzyme assay); conditions: Z-Phe-Arg-AMC 10 μM, enzyme 1 nM, pH 5.5, 30 minutes
T1 sequence (P43235 115-329): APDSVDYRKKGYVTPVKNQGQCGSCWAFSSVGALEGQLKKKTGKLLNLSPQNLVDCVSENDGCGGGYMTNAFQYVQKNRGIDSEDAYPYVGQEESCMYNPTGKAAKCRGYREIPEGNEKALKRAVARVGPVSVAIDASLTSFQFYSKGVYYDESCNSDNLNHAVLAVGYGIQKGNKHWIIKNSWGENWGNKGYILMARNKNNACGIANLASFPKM
Procedure, shortened: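 IC50 by 4-parameter logistic fit of fluorescence (ex 355 nm, em 460 nm) after 30 min reaction. Compound tested at 10 final concentrations from 10.0 μM down to 0.000508 μM against 1 nM enzyme and 10 μM Z-Phe-Arg-AMC, in MES buffer pH 5.5 with DTT, EDTA, Triton X-100 and 10% DMSO.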

cathepsin B = cathepsin B (Homo sapiens, UniProt P07858); experiment: Inhibitory activity assay against cathepsin B (enzyme assay); conditions: Z-Arg-Arg-AMC 40 μM, enzyme 1 nM, pH 6.0, 90 minutes
Procedure, shortened: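 Reaction run 90 min in MES buffer pH 6.0 containing DTT, EDTA, Polysorbate 20 and 10% DMSO, using 40 μM fluorogenic Z-Arg-Arg-AMC and 1 nM cathepsin B. Ten compound levels from 10.0 μM; AMC fluorescence at ex 340/em 460 nm fitted to a 4-parameter logistic for IC50.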

cathepsin S = cathepsin S (Homo sapiens, UniProt P25774); experiment: Inhibitory activity assay against cathepsin S (enzyme assay); conditions: Z-Phe-Arg-AMC 70 μM, enzyme 3 nM, pH 6.5, 45 minutes
Procedure, shortened: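 Ten-point compound titration (10.0 to 0.000508 μM final) reacted 45 min with 3 nM cathepsin S and 70 μM Z-Phe-Arg-AMC in MES 50 mM pH 6.5, DTT 2.5 mM, EDTA 1.0 mM, BSA 0.001%, DMSO 10%. AMC release read at 340/460 nm; IC50 from four-parameter logistic fit.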

Chain of cathepsin L (P07711 114-333, species assumed): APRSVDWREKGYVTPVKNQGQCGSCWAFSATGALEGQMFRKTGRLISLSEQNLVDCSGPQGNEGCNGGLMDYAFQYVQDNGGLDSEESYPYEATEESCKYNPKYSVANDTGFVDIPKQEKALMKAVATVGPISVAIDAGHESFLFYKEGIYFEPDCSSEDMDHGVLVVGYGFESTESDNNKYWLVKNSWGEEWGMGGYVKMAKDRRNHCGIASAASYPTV
Chain of cathepsin S (P25774 115-331, species assumed): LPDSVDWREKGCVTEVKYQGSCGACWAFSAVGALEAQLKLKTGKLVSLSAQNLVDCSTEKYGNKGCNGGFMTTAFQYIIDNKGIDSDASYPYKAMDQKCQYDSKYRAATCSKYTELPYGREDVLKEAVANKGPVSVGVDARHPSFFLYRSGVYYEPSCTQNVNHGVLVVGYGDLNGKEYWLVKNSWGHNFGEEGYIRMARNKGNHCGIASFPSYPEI

| SMILES | IC50 (cathepsin L) | IC50 (cathepsin K) | IC50 (cathepsin B) | IC50 (cathepsin S) |
| --- | --- | --- | --- | --- |
| N#Cc1nccc(C2(NC(=O)Nc3ccccc3C(F)(F)F)CCCCC2)n1 [Example 92, 1-(1-(2-cyanopyrimidin-4-yl)cyclohexyl)-3-(2-(trifluoromethyl)phenyl)urea] | > 10000 nM | 40.9 nM | > 10000 nM | > 10000 nM |
| N#Cc1nccc(C2(NC(=O)Nc3ccc(Cl)c(C(F)(F)F)c3)CCCCC2)n1 [Example 93, 1-(4-chloro-3-(trifluoromethyl)phenyl)-3-(1-(2-cyanopyrimidin-4-yl)cyclohexyl)urea] | > 10000 nM | 23.9 nM | > 10000 nM | > 10000 nM |
| Cc1ccc(F)c(NC(=O)NC2(c3ccnc(C#N)n3)CCCCC2)c1 [Example 94, 1-(1-(2-cyanopyrimidin-4-yl)cyclohexyl)-3-(2-fluoro-5-methylphenyl)urea] | 1130 nM | 9 nM | > 10000 nM | 8240 nM |
| N#Cc1nccc(C2(NC(=O)Nc3cc(C(F)(F)F)cc(C(F)(F)F)c3)CCCCC2)n1 [Example 95, 1-(3,5-bis(trifluoromethyl)phenyl)-3-(1-(2-cyanopyrimidin-4-yl)cyclohexyl)urea] | > 10000 nM | 18.3 nM | > 10000 nM | > 10000 nM |
| N#Cc1nccc(C2(NC(=O)Nc3ccc(F)c(C(F)(F)F)c3)CCCCC2)n1 [Example 96, 1-(1-(2-cyanopyrimidin-4-yl)cyclohexyl)-3-(4-fluoro-3-(trifluoromethyl)phenyl)urea] | 6500 nM | 10.2 nM | > 10000 nM | > 10000 nM |
| N#Cc1nccc(C2(NC(=O)Nc3cc(C(F)(F)F)ccc3F)CCCCC2)n1 [Example 97, 1-(1-(2-cyanopyrimidin-4-yl)cyclohexyl)-3-(2-fluoro-5-(trifluoromethyl)phenyl)urea] | > 10000 nM | 4.9 nM | > 10000 nM | > 10000 nM |
| N#Cc1nccc(C2(NC(=O)Nc3cc(C(F)(F)F)ccc3C(=O)O)CCCCC2)n1 [Example 98, 2-(3-(1-(2-cyanopyrimidin-4-yl)cyclohexyl)ureido)-4-(trifluoromethyl)benzoic acid] | > 10000 nM | 61.7 nM | > 10000 nM | 4480 nM |
| Cc1ccc(C(F)(F)F)cc1NC(=O)NC1(c2ccnc(C#N)n2)CCCCC1 [Example 99, 1-(1-(2-cyanopyrimidin-4-yl)cyclohexyl)-3-(2-methyl-5-(trifluoromethyl)phenyl)urea] | 1100 nM | 3.2 nM | > 10000 nM | > 10000 nM |
| N#Cc1nccc(C2(NC(=O)Nc3ccc(Cc4ccccc4)cc3)CCCCC2)n1 [Example 100, 1-(4-benzylphenyl)-3-(1-(2-cyanopyrimidin-4-yl)cyclohexyl)urea] | > 10000 nM | 15.4 nM | > 10000 nM | > 10000 nM |
| N#Cc1nccc(C2(NC(=O)Nc3ccc(Nc4ccccc4)cc3)CCCCC2)n1 [Example 101, 1-(1-(2-cyanopyrimidin-4-yl)cyclohexyl)-3-(4-(phenylamino)phenyl)urea] | > 10000 nM | 21.7 nM | > 10000 nM | > 10000 nM |
| N#Cc1nccc(C2(NC(=O)Nc3ccccc3O)CCCCC2)n1 [Example 102, 1-(1-(2-cyanopyrimidin-4-yl)cyclohexyl)-3-(2-hydroxyphenyl)urea] | 3440 nM | 63.2 nM | > 10000 nM | 6240 nM |
| N#Cc1nccc(C2(NC(=O)Nc3cc(C(F)(F)F)ccc3C(F)(F)F)CCCCC2)n1 [Example 103, 1-(2,5-bis(trifluoromethyl)phenyl)-3-(1-(2-cyanopyrimidin-4-yl)cyclohexyl)urea] | > 10000 nM | 4.6 nM | > 10000 nM | > 10000 nM |
| CN(C(=O)NC1(c2ccnc(C#N)n2)CCCCC1)c1ccccc1 [Example 104, 3-(1-(2-cyanopyrimidin-4-yl)cyclohexyl)-1-methyl-1-phenylurea] | 5590 nM | 12.4 nM | > 10000 nM | 3540 nM |
| CN(C(=O)NC1(c2ccnc(C#N)n2)CCCCC1)c1ccc(F)c(C(F)(F)F)c1 [Example 105, 3-(1-(2-cyanopyrimidin-4-yl)cyclohexyl)-1-(4-fluoro-3-(trifluoromethyl)phenyl)-1-methylurea] | 2980 nM | 2.1 nM | > 10000 nM | 3630 nM |
| N#Cc1nccc(C2(NC(=O)Nc3cc(C(F)(F)F)c(F)cc3F)CCCCC2)n1 [Example 106, 1-(1-(2-cyanopyrimidin-4-yl)cyclohexyl)-3-(2,4-difluoro-5-(trifluoromethyl)phenyl)urea] | > 10000 nM | 3.1 nM | > 10000 nM | > 10000 nM |
| COCc1ccc(C(F)(F)F)cc1NC(=O)NC1(c2ccnc(C#N)n2)CCCCC1 [Example 107, 1-(1-(2-cyanopyrimidin-4-yl)cyclohexyl)-3-(2-(methoxymethyl)-5-(trifluoromethyl)phenyl)urea] | 1470 nM | 6.8 nM | > 10000 nM | 4750 nM |
| N#Cc1nccc(C2(NC(=O)Nc3cc(C(F)(F)F)ccc3CO)CCCCC2)n1 [Example 108, 1-(1-(2-cyanopyrimidin-4-yl)cyclohexyl)-3-(2-(hydroxymethyl)-5-(trifluoromethyl)phenyl)urea] | 2270 nM | 6.9 nM | > 10000 nM | 9850 nM |
| N#Cc1nccc(C2(NC(=O)Nc3cccc(Br)c3)CCCCC2)n1 [Example 109, 1-(3-bromophenyl)-3-(1-(2-cyanopyrimidin-4-yl)cyclohexyl)urea] | 1920 nM | 11 nM | > 10000 nM | 7620 nM |
| N#Cc1nccc(C2(NC(=O)Nc3ccc(Br)cc3)CCCCC2)n1 [Example 110, 1-(4-bromophenyl)-3-(1-(2-cyanopyrimidin-4-yl)cyclohexyl)urea] | > 10000 nM | 22.9 nM | > 10000 nM | > 10000 nM |
| N#Cc1nccc(C2(NC(=O)Nc3cccc(-c4ccccc4)c3)CCCCC2)n1 [Example 111, 1-([1,1′-biphenyl]-3-yl)-3-(1-(2-cyanopyrimidin-4-yl)cyclohexyl)urea] | > 10000 nM | 71.5 nM | > 10000 nM | > 10000 nM |
| N#Cc1nccc(C2(NC(=O)Nc3ccc(-c4ccccc4)cc3)CCCCC2)n1 [Example 113, 1-([1,1′-biphenyl]-4-yl)-3-(1-(2-cyanopyrimidin-4-yl)cyclohexyl)urea] | > 10000 nM | 12.2 nM | > 10000 nM | > 10000 nM |
| N#Cc1nccc(C2(NC(=O)Nc3ccc(-c4ccc(C(F)(F)F)cc4)cc3)CCCCC2)n1 [Example 114, 1-(1-(2-cyanopyrimidin-4-yl)cyclohexyl)-3-(4′-(trifluoromethyl)-[1,1′-biphenyl]-4-yl)urea] | > 10000 nM | 69.7 nM | > 10000 nM | > 10000 nM |
| N#Cc1nccc(C2(NC(=O)Nc3ccc(-c4ccc(O)cc4)cc3)CCCCC2)n1 [Example 115, 1-(1-(2-cyanopyrimidin-4-yl)cyclohexyl)-3-(4′-hydroxy-[1,1′-biphenyl]-4-yl)urea] | > 10000 nM | 9.2 nM | > 10000 nM | > 10000 nM |
| CS(=O)(=O)c1ccc(-c2ccc(NC(=O)NC3(c4ccnc(C#N)n4)CCCCC3)cc2)cc1 [Example 116, 1-(1-(2-cyanopyrimidin-4-yl)cyclohexyl)-3-(4′-(methylsulfonyl)-[1,1′-biphenyl]-4-yl)urea] | > 10000 nM | 2.1 nM | > 10000 nM | > 10000 nM |
| N#Cc1nccc(C2(NC(=O)Nc3ccc(-c4ccc(N5CCOCC5)cc4)cc3)CCCCC2)n1 [Example 117, 1-(1-(2-cyanopyrimidin-4-yl)cyclohexyl)-3-(4′-morpholino-[1,1′-biphenyl]-4-yl)urea] | > 10000 nM | 4.1 nM | > 10000 nM | > 10000 nM |
| Cn1ncc2ccc(-c3ccc(NC(=O)NC4(c5ccnc(C#N)n5)CCCCC4)cc3)cc21 [Example 118, 1-(1-(2-cyanopyrimidin-4-yl)cyclohexyl)-3-(4-(1-methyl-1H-indazol-6-yl)phenyl)urea] | > 10000 nM | 16.6 nM | > 10000 nM | > 10000 nM |
